Measurements as given in paper PMC3855619 (Biochemistry, 2013).

Biological target: GI 77862362; decaprenyl diphosphate synthase [Rhodobacter capsulatus] (Rhodobacter capsulatus, UniProt Q07D00)
Test: product chain-length by TLC with […]IPP
Type: biochemical

Chain of GI 77862362; decaprenyl diphosphate synthase [Rhodobacter capsulatus] (Q07D00 1-333): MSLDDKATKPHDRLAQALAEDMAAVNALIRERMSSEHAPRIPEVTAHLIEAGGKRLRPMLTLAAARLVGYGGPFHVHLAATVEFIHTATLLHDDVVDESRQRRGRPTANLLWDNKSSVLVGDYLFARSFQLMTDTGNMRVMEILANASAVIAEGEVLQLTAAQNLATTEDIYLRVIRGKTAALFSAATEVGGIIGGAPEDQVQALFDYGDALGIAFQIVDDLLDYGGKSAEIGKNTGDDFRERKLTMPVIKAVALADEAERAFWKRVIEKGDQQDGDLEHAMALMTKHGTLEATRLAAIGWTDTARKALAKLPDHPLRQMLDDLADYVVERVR

**Q.** For C=C(C)CCOP(=O)(O)OP(=O)(O)O [IPP], which “product chain-length by TLC with [14C]IPP” value is on record?
**A.** different ratios of IPP:DMAPP and IPP:FPP
